From paper PMC6458995, “MAP4K4 Inhibition Promotes Survival of Human Stem Cell-Derived Cardiomyocytes and Reduces Infarct Size In Vivo” (Cell Stem Cell, 2019)

Columns and labels:
Assay in all cases: Dundee kinase panel
Assay type in all cases: biochemical
Conditions in all cases: for remaining activity at 1 µM: read-out: residual activity
CHK1 = target: T1, CHK1 (Homo sapiens, UniProt O14757)
T1 construct: lines 1-140) and Reaction Biology
T1 sequence (O14757 1-476): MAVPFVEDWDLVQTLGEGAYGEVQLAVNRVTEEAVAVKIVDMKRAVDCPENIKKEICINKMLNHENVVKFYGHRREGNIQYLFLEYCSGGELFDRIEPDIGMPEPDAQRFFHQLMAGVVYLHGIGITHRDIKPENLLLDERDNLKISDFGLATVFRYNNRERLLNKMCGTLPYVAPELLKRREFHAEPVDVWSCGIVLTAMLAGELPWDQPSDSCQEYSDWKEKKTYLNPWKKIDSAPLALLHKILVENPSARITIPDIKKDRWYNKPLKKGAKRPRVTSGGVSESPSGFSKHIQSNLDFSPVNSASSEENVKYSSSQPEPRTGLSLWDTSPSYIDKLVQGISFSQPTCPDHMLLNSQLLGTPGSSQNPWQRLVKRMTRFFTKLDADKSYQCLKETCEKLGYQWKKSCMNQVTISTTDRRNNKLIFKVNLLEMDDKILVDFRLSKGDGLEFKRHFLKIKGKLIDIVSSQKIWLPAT
Method: (§1) Compounds were screened at 1 μM. For key hits, pIC50 values were then determined by HTRF as above. […] Stability in mouse and human liver microsomes was determined by Cyprotex.

PIM3 = target: T2, PIM3 (Homo sapiens, UniProt Q86V86)
T2 construct: lines 1-140) and Reaction Biology
Method: as §1

p38b MAPK = target: T3, p38b MAPK (Homo sapiens, UniProt Q15759)
T3 construct: lines 1-140) and Reaction Biology
T3 sequence (Q15759 whole entry): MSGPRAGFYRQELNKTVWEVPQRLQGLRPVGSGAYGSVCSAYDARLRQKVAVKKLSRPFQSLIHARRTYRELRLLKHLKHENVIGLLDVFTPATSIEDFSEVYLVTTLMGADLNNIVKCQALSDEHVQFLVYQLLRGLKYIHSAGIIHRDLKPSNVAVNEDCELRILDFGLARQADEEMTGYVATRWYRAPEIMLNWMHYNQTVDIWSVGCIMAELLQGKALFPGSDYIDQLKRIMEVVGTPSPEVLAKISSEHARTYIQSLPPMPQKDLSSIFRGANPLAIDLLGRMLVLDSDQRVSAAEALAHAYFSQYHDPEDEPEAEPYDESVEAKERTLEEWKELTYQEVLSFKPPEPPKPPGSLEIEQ
Method: as §1

JAK2 = target: T4, JAK2 (Homo sapiens, UniProt O60674)
T4 construct: lines 1-140) and Reaction Biology
T4 sequence (O60674 whole entry): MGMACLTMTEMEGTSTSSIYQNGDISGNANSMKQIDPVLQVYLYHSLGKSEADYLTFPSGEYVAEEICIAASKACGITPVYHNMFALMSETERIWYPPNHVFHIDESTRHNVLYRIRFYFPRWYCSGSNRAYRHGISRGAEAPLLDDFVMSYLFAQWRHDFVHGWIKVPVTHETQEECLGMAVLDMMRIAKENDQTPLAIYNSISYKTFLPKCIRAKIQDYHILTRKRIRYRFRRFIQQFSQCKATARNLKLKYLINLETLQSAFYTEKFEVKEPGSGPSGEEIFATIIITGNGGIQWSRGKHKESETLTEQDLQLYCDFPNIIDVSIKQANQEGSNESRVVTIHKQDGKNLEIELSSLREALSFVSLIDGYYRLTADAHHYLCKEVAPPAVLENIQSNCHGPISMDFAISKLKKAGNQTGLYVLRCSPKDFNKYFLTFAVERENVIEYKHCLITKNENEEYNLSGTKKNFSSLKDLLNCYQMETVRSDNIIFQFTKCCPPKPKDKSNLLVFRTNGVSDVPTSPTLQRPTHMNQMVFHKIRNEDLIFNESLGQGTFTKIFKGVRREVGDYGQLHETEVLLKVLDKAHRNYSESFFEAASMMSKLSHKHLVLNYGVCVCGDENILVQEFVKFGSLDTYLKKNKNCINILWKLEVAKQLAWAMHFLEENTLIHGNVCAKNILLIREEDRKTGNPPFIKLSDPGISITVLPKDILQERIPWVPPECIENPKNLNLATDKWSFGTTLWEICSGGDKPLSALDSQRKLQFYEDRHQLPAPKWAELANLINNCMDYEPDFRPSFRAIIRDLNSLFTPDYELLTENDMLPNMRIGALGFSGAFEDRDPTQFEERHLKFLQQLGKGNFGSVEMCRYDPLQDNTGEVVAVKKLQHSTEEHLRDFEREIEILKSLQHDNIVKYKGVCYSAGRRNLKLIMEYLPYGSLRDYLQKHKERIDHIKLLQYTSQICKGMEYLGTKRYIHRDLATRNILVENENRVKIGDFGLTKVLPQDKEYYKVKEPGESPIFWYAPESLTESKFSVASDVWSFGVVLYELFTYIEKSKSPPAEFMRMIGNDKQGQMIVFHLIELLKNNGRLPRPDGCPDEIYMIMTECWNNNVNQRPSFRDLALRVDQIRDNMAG
Method: as §1

MPSK1 = target: T5, MPSK1 (Homo sapiens, UniProt O75716)
T5 construct: lines 1-140) and Reaction Biology
T5 sequence (O75716 whole entry): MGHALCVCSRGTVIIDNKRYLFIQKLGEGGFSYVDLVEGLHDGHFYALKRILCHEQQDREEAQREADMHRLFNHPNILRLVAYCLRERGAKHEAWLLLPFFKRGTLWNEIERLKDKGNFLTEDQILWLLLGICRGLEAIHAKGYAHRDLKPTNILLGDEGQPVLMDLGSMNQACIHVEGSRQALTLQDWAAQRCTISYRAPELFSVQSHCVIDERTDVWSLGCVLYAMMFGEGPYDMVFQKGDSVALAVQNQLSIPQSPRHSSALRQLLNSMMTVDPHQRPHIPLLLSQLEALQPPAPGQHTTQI
Method: as §1

EF2K = target: T6, EF2K (Homo sapiens, UniProt O00418)
T6 construct: lines 1-140) and Reaction Biology
T6 sequence (O00418 1-725): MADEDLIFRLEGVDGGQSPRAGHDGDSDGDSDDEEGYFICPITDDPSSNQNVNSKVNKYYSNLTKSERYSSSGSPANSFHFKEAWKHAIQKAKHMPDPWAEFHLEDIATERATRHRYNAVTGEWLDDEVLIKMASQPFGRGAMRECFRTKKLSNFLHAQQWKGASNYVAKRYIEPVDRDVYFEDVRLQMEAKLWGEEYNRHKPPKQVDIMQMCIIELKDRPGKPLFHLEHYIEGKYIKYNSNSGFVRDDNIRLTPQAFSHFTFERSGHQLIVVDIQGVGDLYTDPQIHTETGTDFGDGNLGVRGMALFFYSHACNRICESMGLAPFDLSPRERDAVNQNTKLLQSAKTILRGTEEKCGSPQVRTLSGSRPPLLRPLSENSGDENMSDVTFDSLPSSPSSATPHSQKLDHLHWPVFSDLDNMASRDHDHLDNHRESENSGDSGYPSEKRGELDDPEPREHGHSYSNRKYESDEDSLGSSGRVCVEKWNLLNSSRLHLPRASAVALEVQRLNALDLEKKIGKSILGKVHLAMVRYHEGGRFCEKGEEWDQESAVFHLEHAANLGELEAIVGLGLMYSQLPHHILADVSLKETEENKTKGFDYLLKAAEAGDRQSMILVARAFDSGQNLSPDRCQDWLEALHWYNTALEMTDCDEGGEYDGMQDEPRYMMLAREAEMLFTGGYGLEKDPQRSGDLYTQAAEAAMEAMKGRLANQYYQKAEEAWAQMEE
Method: as §1

PAK6 = target: T7, PAK6 (Homo sapiens, UniProt Q9NQU5)
T7 construct: lines 1-140) and Reaction Biology
T7 sequence (Q9NQU5 whole entry): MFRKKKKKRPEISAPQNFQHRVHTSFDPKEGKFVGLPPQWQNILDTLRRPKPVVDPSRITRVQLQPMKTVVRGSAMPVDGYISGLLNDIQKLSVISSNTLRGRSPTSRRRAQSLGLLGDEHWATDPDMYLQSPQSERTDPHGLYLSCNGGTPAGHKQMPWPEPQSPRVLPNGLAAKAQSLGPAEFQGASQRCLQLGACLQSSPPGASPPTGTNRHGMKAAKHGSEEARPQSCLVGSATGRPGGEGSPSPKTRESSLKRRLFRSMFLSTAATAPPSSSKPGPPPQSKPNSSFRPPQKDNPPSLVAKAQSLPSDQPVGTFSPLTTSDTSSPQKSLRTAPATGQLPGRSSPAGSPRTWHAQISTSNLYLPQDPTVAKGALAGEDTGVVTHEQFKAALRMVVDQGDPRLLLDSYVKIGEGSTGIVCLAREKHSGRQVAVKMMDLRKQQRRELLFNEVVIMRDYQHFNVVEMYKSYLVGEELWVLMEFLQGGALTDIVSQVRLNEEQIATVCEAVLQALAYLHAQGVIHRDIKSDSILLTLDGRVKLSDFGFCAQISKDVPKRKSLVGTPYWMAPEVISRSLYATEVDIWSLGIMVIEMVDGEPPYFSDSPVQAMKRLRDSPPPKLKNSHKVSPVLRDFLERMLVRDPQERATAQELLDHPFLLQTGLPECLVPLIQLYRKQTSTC
Method: as §1

MST3 = target: T8, MST3 (Homo sapiens, UniProt Q9Y6E0)
T8 construct: lines 1-140) and Reaction Biology
T8 sequence (Q9Y6E0 whole entry): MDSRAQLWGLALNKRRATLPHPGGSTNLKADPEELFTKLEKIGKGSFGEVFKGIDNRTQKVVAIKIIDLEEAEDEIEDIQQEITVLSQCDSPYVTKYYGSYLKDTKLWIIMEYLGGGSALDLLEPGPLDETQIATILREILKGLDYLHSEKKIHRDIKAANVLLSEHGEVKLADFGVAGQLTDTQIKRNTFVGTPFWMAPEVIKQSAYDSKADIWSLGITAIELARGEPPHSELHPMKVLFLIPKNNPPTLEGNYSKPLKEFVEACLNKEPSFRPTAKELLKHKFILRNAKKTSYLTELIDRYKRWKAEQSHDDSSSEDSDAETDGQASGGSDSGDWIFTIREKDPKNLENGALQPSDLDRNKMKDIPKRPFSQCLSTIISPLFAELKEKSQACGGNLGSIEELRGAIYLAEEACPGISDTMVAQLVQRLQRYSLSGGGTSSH
Method: as §1

p38a MAPK = target: T9, p38a MAPK (Homo sapiens, UniProt Q16539)
T9 construct: lines 1-140) and Reaction Biology
T9 sequence (Q16539 whole entry): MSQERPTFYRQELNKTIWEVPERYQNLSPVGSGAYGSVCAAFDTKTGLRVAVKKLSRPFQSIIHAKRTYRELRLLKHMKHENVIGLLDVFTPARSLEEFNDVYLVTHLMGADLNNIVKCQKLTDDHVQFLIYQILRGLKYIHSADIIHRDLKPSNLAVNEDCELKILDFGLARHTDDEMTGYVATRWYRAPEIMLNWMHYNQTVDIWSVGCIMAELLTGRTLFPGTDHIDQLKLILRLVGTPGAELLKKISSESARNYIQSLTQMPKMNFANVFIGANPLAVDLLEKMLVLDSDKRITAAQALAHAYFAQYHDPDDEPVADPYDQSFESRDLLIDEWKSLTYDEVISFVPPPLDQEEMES
Method: as §1

SIK3 = target: T10, SIK3 (Homo sapiens, UniProt Q9Y2K2)
T10 construct: lines 1-140) and Reaction Biology
Method: as §1

TESK1 = target: T11, TESK1 (Homo sapiens, UniProt Q15569)
T11 construct: lines 1-140) and Reaction Biology
T11 sequence (Q15569 whole entry): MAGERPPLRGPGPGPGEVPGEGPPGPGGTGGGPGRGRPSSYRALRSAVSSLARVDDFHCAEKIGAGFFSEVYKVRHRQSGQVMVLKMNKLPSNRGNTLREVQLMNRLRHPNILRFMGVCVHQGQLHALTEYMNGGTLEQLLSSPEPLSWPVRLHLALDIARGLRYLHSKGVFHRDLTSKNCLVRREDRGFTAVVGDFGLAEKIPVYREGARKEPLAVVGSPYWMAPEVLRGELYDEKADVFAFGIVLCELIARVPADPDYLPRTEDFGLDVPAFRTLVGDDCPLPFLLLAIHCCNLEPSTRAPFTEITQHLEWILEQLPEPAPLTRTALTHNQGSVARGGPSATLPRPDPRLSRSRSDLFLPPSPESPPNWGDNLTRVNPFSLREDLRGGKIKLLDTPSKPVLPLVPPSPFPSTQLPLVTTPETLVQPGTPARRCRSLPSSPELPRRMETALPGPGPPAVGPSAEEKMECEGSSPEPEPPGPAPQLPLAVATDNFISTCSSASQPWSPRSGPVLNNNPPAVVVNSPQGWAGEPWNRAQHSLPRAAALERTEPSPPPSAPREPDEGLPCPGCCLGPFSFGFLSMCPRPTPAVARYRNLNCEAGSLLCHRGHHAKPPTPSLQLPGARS
Method: as §1

IKKe = target: T12, IKKe (Homo sapiens, UniProt Q14164)
T12 construct: lines 1-140) and Reaction Biology
T12 sequence (Q14164 1-716): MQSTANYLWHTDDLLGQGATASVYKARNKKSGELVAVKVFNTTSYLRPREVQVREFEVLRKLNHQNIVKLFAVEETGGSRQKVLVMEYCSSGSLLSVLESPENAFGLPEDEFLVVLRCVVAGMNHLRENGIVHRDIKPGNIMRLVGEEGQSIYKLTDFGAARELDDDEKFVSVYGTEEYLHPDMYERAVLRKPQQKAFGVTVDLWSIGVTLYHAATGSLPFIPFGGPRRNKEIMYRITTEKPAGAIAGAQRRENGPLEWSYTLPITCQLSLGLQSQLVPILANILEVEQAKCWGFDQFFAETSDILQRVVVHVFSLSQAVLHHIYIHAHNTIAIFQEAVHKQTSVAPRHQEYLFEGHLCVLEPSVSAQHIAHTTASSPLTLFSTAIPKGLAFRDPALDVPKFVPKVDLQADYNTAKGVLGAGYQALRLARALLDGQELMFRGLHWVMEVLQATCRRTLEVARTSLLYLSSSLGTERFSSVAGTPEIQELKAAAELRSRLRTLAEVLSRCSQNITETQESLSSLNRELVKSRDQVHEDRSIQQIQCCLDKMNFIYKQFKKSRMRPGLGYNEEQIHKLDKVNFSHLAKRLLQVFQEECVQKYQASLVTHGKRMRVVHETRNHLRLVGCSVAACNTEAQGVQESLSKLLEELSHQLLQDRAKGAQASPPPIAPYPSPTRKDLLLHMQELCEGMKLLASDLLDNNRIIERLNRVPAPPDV
Method: as §1

TAK1 = target: T13, TAK1 (Homo sapiens, UniProt O43318)
T13 construct: lines 1-140) and Reaction Biology
T13 sequence (O43318 1-303 limits assumed): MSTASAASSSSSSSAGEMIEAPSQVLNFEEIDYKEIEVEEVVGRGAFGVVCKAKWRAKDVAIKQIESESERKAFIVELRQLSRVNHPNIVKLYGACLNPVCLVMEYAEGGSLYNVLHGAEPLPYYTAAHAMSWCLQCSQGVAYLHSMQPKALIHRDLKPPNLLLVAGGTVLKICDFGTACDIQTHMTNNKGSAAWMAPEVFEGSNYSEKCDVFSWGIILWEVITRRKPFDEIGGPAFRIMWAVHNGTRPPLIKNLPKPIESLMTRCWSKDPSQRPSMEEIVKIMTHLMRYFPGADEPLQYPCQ
Method: as §1

Row | SMILES | remaining activity at 1 µM (CHK1) | remaining activity at 1 µM (PIM3) | remaining activity at 1 µM (p38b MAPK) | remaining activity at 1 µM (JAK2) | remaining activity at 1 µM (MPSK1) | remaining activity at 1 µM (EF2K) | remaining activity at 1 µM (PAK6) | remaining activity at 1 µM (MST3) | remaining activity at 1 µM (p38a MAPK) | remaining activity at 1 µM (SIK3) | remaining activity at 1 µM (TESK1) | remaining activity at 1 µM (IKKe) | remaining activity at 1 µM (TAK1) | further results
1 | O=C1Cc2c([nH]c3ccc(Br)cc23)-c2ccccc2N1 [Kenpaullone] | 68% | 103% | 95% | 105% | 74% | 97% | 32% | 67% | 94% | 12% | 19% | 98% | 113% | –
2 | O=C1Nc2ccc(I)cc2/C1=C/c1cc(Br)c(O)c(Br)c1 [GW5074] | 33% | 6% | 77% | 82% | 38% | 57% | 95% | 29% | 49% | 65% | 32% | 82% | 92% | –
3 | Nc1ncc(C(=O)NC2CN(C(=O)C3CC3)C2)c2ccc(-c3cccc(F)c3)nc12 [GNE-495] | – | – | – | – | – | – | – | – | – | – | – | – | – | residual activity (CHK1; 1 μM): 93%; residual activity (PIM3; 1 μM): 87%; residual activity (p38b MAPK; 1 μM): 100%; residual activity (JAK2; 1 μM): 76%; residual activity (MPSK1; 1 μM): 100%; residual activity (EF2K; 1 μM): 120%; residual activity (PAK6; 1 μM): 64%; residual activity (MST3; 1 μM): 72%; residual activity (p38a MAPK; 1 μM): 95%; residual activity (SIK3; 1 μM): 87%; residual activity (TESK1; 1 μM): 72%; residual activity (IKKe; 1 μM): 79%; residual activity (TAK1; 1 μM): 31%
4 | Oc1ncnc2c1c(-c1ccccc1)cn2-c1ccccc1 [F1386-0303, 5,7-diphenyl-7H-pyrrolo[2,3-d]pyrimidin-4-ol] | 98% | 74% | 96% | 94% | 117% | 99% | 105% | 120% | 78% | 110% | 101% | 139% | 102% | –
5 | COCCOc1ccc(-c2cn(-c3ccccc3)c3nc[nH]c(=O)c23)cc1 [DMX-5804, 5-[4-(2-methoxy-ethoxy)-phenyl]-7-phenyl-3,7-dihydro-pyrrolo[2,3-d]pyrimidin-4-one] | 86% | 88% | 93% | 70% | 103% | 104% | 118% | 95% | 96% | 90% | 90% | 106% | 61% | –
